Test results from patent US7361645B2, “Androgenic 7-substituted 11-halogen steroids” (Bayer Schering Pharma AG, priority 2001, dated 2008).
Values joined by “and” are separate entries in the source; they are usually repeats but may differ in a detail not shown here. Identical values can stand only once.

What was measured:
seminal vesicles = experiment: Hershberger test, juvenile castrated male rat: seminal vesicles weight; format: in vivo; details: ORX juvenile rats, 7 days
Text: (§1) The test by Hershberger et al. (1953) is used as a screening test method for detecting androgenic properties:
(§2) Principle. The function and size of the accessory reproductive glands (seminal vesicles, prostate) and of the muscle (e.g. M. levator ani) are androgen dependent. Castration leads to the atrophy of these organs, the substitution with androgenic compounds stimulates growth and function in a dose dependent manner.
(§3) Test description. In the juvenile male castrated rat, pharmacologically active agonists of androgens stimulate the growth of the prostate, seminal vesicles (androgenic property) and Musculus levator ani (anabolic property). The treatment for seven days of juvenile castrated male rats with daily administration of compound A: 11β-Fluoro-17β-hydroxy-7α-methyl-estr-4-en-3-one,(different doses), compound B: 7α-methyl-19-nortestosterone (different doses), testosterone propionate (reference) and benzylbenzoate/ricinus oil (solvent and control), respectively, was used to determine the androgenic and anabolic potency of eF-MENT. Analyses: relative weights of prostate, seminal vesicles and M. levator ani.
(§4) Animals: ORX, juvenile rats, duration of treatment: 7 days.

M. levator ani = experiment: Hershberger test, juvenile castrated male rat: M. levator ani weight; format: in vivo; details: ORX juvenile rats, 7 days
Text: as §1, §2, §3, §4

prostate = experiment: Hershberger test, juvenile castrated male rat: prostate weight; format: in vivo; details: ORX juvenile rats, 7 days
Text: as §1, §2, §3, §4

[1] = test system: prostate, seminal vesicles and M. levator ani; experiment: Anabolic and androgenic activity in the juvenile male rat (Hershberger), overall; format: in vivo; details: compared with prior art compound B
Text: as §1, §2, §3

[2] = Stability in liver microsomes, rat; format: in vitro ADME; details: 3 μM
Method: (§5) The metabolic stability of the compounds has been tested in liver microsomes of various species (commercially available). It is possible to make predictions as to the first-pass-metabolism in human by using human test material. A rapid degradation of the test material gives hints at low oral bio-availability of the substance tested.
(§6) The amount of the remaining compound is quantified by comparison with the amount remaining after 0 mins.
(§7) Species Specific Stability of Test Compounds in Liver at a Concentration of 3 μM

[3] = Stability in liver microsomes of various species, overall; format: in vitro ADME; details: compared with compounds of the prior art
Method: as §5, §6

[4] = Stability in liver microsomes, mouse; format: in vitro ADME; details: 3 μM
Method: as §5, §6, §7

[5] = Stability in liver microsomes, human; format: in vitro ADME; details: 3 μM
Method: as §5, §6, §7

C[C@@H]1CC2=CC(=O)CC[C@@H]2[C@@H]2[C@@H]1[C@@H]1CC[C@H](O)[C@@]1(C)C[C@@H]2F [Compound A, 11β-Fluoro-17β-hydroxy-7α-methyl-estr-4-en-3-one]
Seminal vesicles Stimulation [mean] (seminal vesicles; dose 0.015 mg*kg^-1*day^-1): 18.6
Seminal vesicles rel. Gewicht (seminal vesicles; dose 0.015 mg*kg^-1*day^-1): 18.6 mg/100 g and 15.5 mg/100 g
Seminal vesicles Stimulation [mean] (seminal vesicles; dose 0.03 mg*kg^-1*day^-1): 35.6
Seminal vesicles rel. Gewicht (seminal vesicles; dose 0.03 mg*kg^-1*day^-1): 26.8 mg/100 g
Seminal vesicles Stimulation [mean] (seminal vesicles; dose 0.05 mg*kg^-1*day^-1): 59.2
Seminal vesicles rel. Gewicht (seminal vesicles; dose 0.05 mg*kg^-1*day^-1): 43.6 mg/100 g
Seminal vesicles Stimulation [mean] (seminal vesicles; dose 0.15 mg*kg^-1*day^-1): 85.5
Seminal vesicles rel. Gewicht (seminal vesicles; dose 0.15 mg*kg^-1*day^-1): 49.3 mg/100 g and 57.9 mg/100 g and 64.4 mg/100 g
Seminal vesicles Stimulation [mean] (seminal vesicles; dose 0.3 mg*kg^-1*day^-1): 144.8
Seminal vesicles rel. Gewicht (seminal vesicles; dose 0.3 mg*kg^-1*day^-1): 93.4 mg/100 g
Seminal vesicles Stimulation [mean] (seminal vesicles; dose 1.5 mg*kg^-1*day^-1): 189.3
Seminal vesicles rel. Gewicht (seminal vesicles; dose 1.5 mg*kg^-1*day^-1): 120.0 mg/100 g
M. levator ani Stimulation [mean] (M. levator ani; dose 0.015 mg*kg^-1*day^-1): 79.5
M. levator ani rel. Weight (M. levator ani; dose 0.015 mg*kg^-1*day^-1): 54.9 mg/100 g and 50.8 mg/100 g
M. levator ani Stimulation [mean] (M. levator ani; dose 0.03 mg*kg^-1*day^-1): 93.3
M. levator ani rel. Weight (M. levator ani; dose 0.03 mg*kg^-1*day^-1): 56.5 mg/100 g
M. levator ani Stimulation [mean] (M. levator ani; dose 0.05 mg*kg^-1*day^-1): 118.0
M. levator ani rel. Weight (M. levator ani; dose 0.05 mg*kg^-1*day^-1): 59.4 mg/100 g
M. levator ani Stimulation [mean] (M. levator ani; dose 0.15 mg*kg^-1*day^-1): 154.5
M. levator ani Stimulation [mean] (M. levator ani; dose 0.3 mg*kg^-1*day^-1): 180.4
M. levator ani rel. Weight (M. levator ani; dose 0.3 mg*kg^-1*day^-1): 69.8 mg/100 g
M. levator ani Stimulation [mean] (M. levator ani; dose 1.5 mg*kg^-1*day^-1): 181.0
M. levator ani rel. Weight (M. levator ani; dose 1.5 mg*kg^-1*day^-1): 69.9 mg/100 g
Prostate Stimulation [mean] (prostate; dose 0.015 mg*kg^-1*day^-1): 30.0
Prostate rel. Weight (prostate; dose 0.015 mg*kg^-1*day^-1): 19.7 mg/100 g and 18.5 mg/100 g
Prostate Stimulation [mean] (prostate; dose 0.03 mg*kg^-1*day^-1): 40.1
Prostate rel. Weight (prostate; dose 0.03 mg*kg^-1*day^-1): 25.2 mg/100 g
Prostate Stimulation [mean] (prostate; dose 0.05 mg*kg^-1*day^-1): 76.6
Prostate rel. Weight (prostate; dose 0.05 mg*kg^-1*day^-1): 34.1 mg/100 g
Prostate Stimulation [mean] (prostate; dose 0.15 mg*kg^-1*day^-1): 93.8
Prostate rel. Weight (prostate; dose 0.15 mg*kg^-1*day^-1): 41.7 mg/100 g and 44.9 mg/100 g and 47.5 mg/100 g
Prostate Stimulation [mean] (prostate; dose 0.3 mg*kg^-1*day^-1): 125.1
Prostate rel. Weight (prostate; dose 0.3 mg*kg^-1*day^-1): 59.5 mg/100 g
Prostate Stimulation [mean] (prostate; dose 1.5 mg*kg^-1*day^-1): 137.3
Prostate rel. Weight (prostate; dose 1.5 mg*kg^-1*day^-1): 64.6 mg/100 g
activity profile (androgenic/anabolic) [1]: comparable to the prior art compound B
(%) left unchanged after 30 min [2]: 5%
(%) left unchanged after 60 min [2]: 7%
metabolic stability [3]: higher than that of compounds of the prior art
(%) left unchanged after 30 min [4]: 20%
(%) left unchanged after 60 min [4]: 11%
(%) left unchanged after 30 min [5]: 59%
(%) left unchanged after 60 min [5]: 41%

C[C@@H]1CC2=CC(=O)CC[C@@H]2[C@H]2CC[C@]3(C)[C@@H](O)CC[C@H]3[C@@H]21 [Compound B, 7α-methyl-19-nortestosterone, reference compound]
Seminal vesicles Stimulation [mean] (seminal vesicles; dose 0.005 mg*kg^-1*day^-1): 4.6
Seminal vesicles rel. Gewicht (seminal vesicles; dose 0.005 mg*kg^-1*day^-1): 9.2 mg/100 g
Seminal vesicles Stimulation [mean] (seminal vesicles; dose 0.015 mg*kg^-1*day^-1): 17.0
Seminal vesicles rel. Gewicht (seminal vesicles; dose 0.015 mg*kg^-1*day^-1): 13.6 mg/100 g and 19.2 mg/100 g
Seminal vesicles Stimulation [mean] (seminal vesicles; dose 0.05 mg*kg^-1*day^-1): 51.8
Seminal vesicles rel. Gewicht (seminal vesicles; dose 0.05 mg*kg^-1*day^-1): 36.8 mg/100 g and 39.0 mg/100 g
Seminal vesicles Stimulation [mean] (seminal vesicles; dose 0.15 mg*kg^-1*day^-1): 87.8
Seminal vesicles rel. Gewicht (seminal vesicles; dose 0.15 mg*kg^-1*day^-1): 65.5 mg/100 g
M. levator ani Stimulation [mean] (M. levator ani; dose 0.005 mg*kg^-1*day^-1): 71.3
M. levator ani rel. Weight (M. levator ani; dose 0.005 mg*kg^-1*day^-1): 36.6 mg/100 g
M. levator ani Stimulation [mean] (M. levator ani; dose 0.015 mg*kg^-1*day^-1): 92.6
M. levator ani rel. Weight (M. levator ani; dose 0.015 mg*kg^-1*day^-1): 38.1 mg/100 g and 53.7 mg/100 g
M. levator ani Stimulation [mean] (M. levator ani; dose 0.05 mg*kg^-1*day^-1): 150.7
M. levator ani rel. Weight (M. levator ani; dose 0.05 mg*kg^-1*day^-1): 48.1 mg/100 g and 59.4 mg/100 g
M. levator ani Stimulation [mean] (M. levator ani; dose 0.15 mg*kg^-1*day^-1): 283.4
M. levator ani rel. Weight (M. levator ani; dose 0.15 mg*kg^-1*day^-1): 59.4 mg/100 g
Prostate Stimulation [mean] (prostate; dose 0.005 mg*kg^-1*day^-1): 4.3
Prostate rel. Weight (prostate; dose 0.005 mg*kg^-1*day^-1): 8.9 mg/100 g
Prostate Stimulation [mean] (prostate; dose 0.015 mg*kg^-1*day^-1): 24.0
Prostate rel. Weight (prostate; dose 0.015 mg*kg^-1*day^-1): 14.6 mg/100 g and 20.0 mg/100 g
Prostate Stimulation [mean] (prostate; dose 0.05 mg*kg^-1*day^-1): 51.3
Prostate rel. Weight (prostate; dose 0.05 mg*kg^-1*day^-1): 24.7 mg/100 g and 31.7 mg/100 g
Prostate Stimulation [mean] (prostate; dose 0.15 mg*kg^-1*day^-1): 90.2
Prostate rel. Weight (prostate; dose 0.15 mg*kg^-1*day^-1): 40.6 mg/100 g
(%) left unchanged after 30 min [2]: 4%
(%) left unchanged after 60 min [2]: 6%
(%) left unchanged after 30 min [4]: 4%
(%) left unchanged after 60 min [4]: 4%
(%) left unchanged after 30 min [5]: 37%
(%) left unchanged after 60 min [5]: 19%
